Data as given in patent US8735414B2 (priority 2009, dated 2014).

Key:
[1] = system: bicistronic HCV replicon (replicon RNA, GenBank Accession No. AJ242654); assay: HCV Replicon Assay; format: cell-based; conditions: Hepatitis C virus, 72 h, read-out: Replicon IC50

SMILES | melting point | IC50 [1]
Cc1cc2c(cc1F)c(C#N)c(-c1ccc(S(=O)(=O)N[C@@H](C)C(F)(F)F)cn1)n2-c1cccs1 [compound 990, 6-[3-cyano-5-fluoro-6-methyl-1-(thiophen-2-yl)-1H-indol-2-yl]-N-[(2S)-1,1,1-trifluoropropan-2-yl]pyridine-3-sulfonamide] | 233 to 240 °C | < 500 nM
CC(C)(NS(=O)(=O)c1ccc(-c2c(C#N)c3cc(F)ccc3n2-c2ncccn2)nc1)C(F)(F)F [compound 602, 6-[3-cyano-5-fluoro-1-(pyrimidin-2-yl)-1H-indol-2-yl]-N-(1,1,1-trifluoro-2-methylpropan-2-yl)pyridine-3-sulfonamide] | 231 to 234 °C | 500 to 2000 nM
Cc1c(F)cc2c(C#N)c(-c3ccc(S(=O)(=O)N[C@@H](C)C(F)(F)F)cn3)n(C3CCCC3)c2c1F [compound 508, 6-(3-cyano-1-cyclopentyl-5,7-difluoro-6-methyl-1H-indol-2-yl)-N-[(2S)-1,1,1-trifluoropropan-2-yl]pyridine-3-sulfonamide] | 215 to 219 °C | < 500 nM
C[C@H](NS(=O)(=O)c1cnc(-c2c(C#N)c3cc(Cl)ccc3n2C2CCC2)nc1)C(F)(F)F [compound 454, 2-(5-chloro-3-cyano-1-cyclobutyl-1H-indol-2-yl)-N-[(2S)-1,1,1-trifluoropropan-2-yl]pyrimidine-5-sulfonamide] | 232 to 234 °C | < 500 nM
Cc1cc2c(cc1O)c(C#N)c(-c1ccc(S(=O)(=O)N[C@@H](C)C(F)(F)F)cn1)n2C1CCC1 [compound 796, 6-(3-cyano-1-cyclobutyl-5-hydroxy-6-methyl-1H-indol-2-yl)-N-[(2S)-1,1,1-trifluoropropan-2-yl]pyridine-3-sulfonamide] | 193 to 195 °C | < 500 nM
Cc1cc2c(cc1F)c(C#N)c(-c1ccc(S(=O)(=O)NC(CF)CF)cn1)n2C1CCC1 [compound 108, 6-(3-cyano-1-cyclobutyl-5-fluoro-6-methyl-1H-indol-2-yl)-N-(1,3-difluoropropan-2-yl)pyridine-3-sulfonamide] | 186 to 188 °C | < 500 nM
Cc1cc2c(C#N)c(-c3ccc(S(=O)(=O)NC(CF)CF)cn3)n(C3CCCC3)c2cc1Cl [compound 521, 6-(6-chloro-3-cyano-1-cyclopentyl-5-methyl-1H-indol-2-yl)-N-(1,3-difluoropropan-2-yl)pyridine-3-sulfonamide] | 217.5 to 218 °C | < 500 nM
Cc1ccc2c(c1)c(C#N)c(-c1ccc(S(=O)(=O)N[C@@H](C)C3CC3)cn1)n2C(C)C [compound 564, 6-[3-cyano-5-methyl-1-(propan-2-yl)-1H-indol-2-yl]-N-[(1S)-1-cyclopropylethyl]pyridine-3-sulfonamide] | 170 to 173 °C | < 500 nM
Cc1cc2c(cc1F)c(C#N)c(-c1ccc(S(=O)(=O)N[C@@H](C)C(F)(F)F)cn1)n2-c1cccnn1 [compound 892, 6-[3-cyano-5-fluoro-6-methyl-1-(pyridazin-3-yl)-1H-indol-2-yl]-N-[(2S)-1,1,1-trifluoropropan-2-yl]pyridine-3-sulfonamide] | 245 to 250 °C | < 500 nM
CCc1cc2c(cc1F)c(C#N)c(-c1ccc(S(=O)(=O)N[C@@H](C)C(F)(F)F)cn1)n2-c1cc(OC)ccn1 [compound 955, 6-[3-cyano-6-ethyl-5-fluoro-1-(4-methoxypyridin-2-yl)-1H-indol-2-yl]-N-[(2S)-1,1,1-trifluoropropan-2-yl]pyridine-3-sulfonamide] | 227 to 233 °C | < 500 nM
C[C@@H](NS(=O)(=O)c1ccc(-c2c(C#N)c3ccc(C4CCC4)cc3n2C2CCCC2)nc1)C(F)(F)F [compound 343, 6-(3-cyano-6-cyclobutyl-1-cyclopentyl-1H-indol-2-yl)-N-[(2R)-1,1,1-trifluoropropan-2-yl]pyridine-3-sulfonamide] | 176 to 178 °C | 2000 to 5000 nM
C[C@@H](NS(=O)(=O)c1ccc(-c2c(C#N)c3ccc(C4CC4)cc3n2C2CCCC2)nc1)C(F)(F)F [compound 211, 6-(3-cyano-1-cyclopentyl-6-cyclopropyl-1H-indol-2-yl)-N-[(2R)-1,1,1-trifluoropropan-2-yl]pyridine-3-sulfonamide] | 178 to 181 °C | < 500 nM
N#Cc1c(-c2ncc(S(=O)(=O)NC(CF)CF)cn2)n(C2CCC2)c2cc(F)ccc12 [compound 163, 2-(3-cyano-1-cyclobutyl-6-fluoro-1H-indol-2-yl)-N-(1,3-difluoropropan-2-yl)pyrimidine-5-sulfonamide] | 193 to 195 °C | 500 to 2000 nM
C[C@@H](NS(=O)(=O)c1ccc(-c2c(C#N)c3ccc(F)cc3n2CC2CC2)nc1)C(F)(F)F [compound 216, 6-[3-cyano-1-(cyclopropylmethyl)-6-fluoro-1H-indol-2-yl]-N-[(2R)-1,1,1-trifluoropropan-2-yl]pyridine-3-sulfonamide] | 173 to 175 °C | 500 to 2000 nM
N#Cc1c(-c2ccc(S(=O)(=O)NC(CF)CF)cn2)n(C2CCCCC2)c2cc(C3CC3)ccc12 [compound 92, 6-(3-cyano-1-cyclohexyl-6-cyclopropyl-1H-indol-2-yl)-N-(1,3-difluoropropan-2-yl)pyridine-3-sulfonamide] | 193 to 198 °C | < 500 nM
CCc1cc2c(cc1F)c(C(N)=O)c(-c1ccc(S(=O)(=O)NC(C)(C)C)cn1)n2-c1ccccc1 [compound 1109, 2-[5-(tert-butylsulfamoyl)pyridin-2-yl]-6-ethyl-5-fluoro-1-phenyl-1H-indole-3-carboxamide] | 237.9 to 238.9 °C | < 500 nM
CCCn1c(-c2ccc(S(=O)(=O)N[C@H](C)C(F)(F)F)cn2)c(C#N)c2ccc(F)cc21 [compound 217, 6-(3-cyano-6-fluoro-1-propyl-1H-indol-2-yl)-N-[(2R)-1,1,1-trifluoropropan-2-yl]pyridine-3-sulfonamide] | 195 to 197 °C | 2000 to 5000 nM
CC(C)n1c(-c2ncc(S(=O)(=O)NC(CF)CF)cn2)c(C#N)c2ccc(OC(F)F)cc21 [compound 137, 2-[3-cyano-6-(difluoromethoxy)-1-(propan-2-yl)-1H-indol-2-yl]-N-(1,3-difluoropropan-2-yl)pyrimidine-5-sulfonamide] | 219 to 221 °C | < 500 nM
CCc1cc2c(cc1F)c(C#N)c(-c1ccc(S(=O)(=O)N[C@@H](C)C(F)(F)F)cn1)n2-c1cccnc1 [compound 954, 6-[3-cyano-6-ethyl-5-fluoro-1-(pyridin-3-yl)-1H-indol-2-yl]-N-[(2S)-1,1,1-trifluoropropan-2-yl]pyridine-3-sulfonamide] | 205 to 212 °C | < 500 nM
Cc1ccc2c(C#N)c(-c3ncc(S(=O)(=O)NC(C)C)cn3)n(C3CCCCC3)c2c1 [compound 98, 2-(3-cyano-1-cyclohexyl-6-methyl-1H-indol-2-yl)-N-(propan-2-yl)pyrimidine-5-sulfonamide] | 196 to 201 °C | < 500 nM
C[C@@H](NS(=O)(=O)c1ccc(-c2c(C#N)c3cc(F)c(OC(F)F)cc3n2C2CCC2)nc1)C(F)(F)F [compound 648, 6-[3-cyano-1-cyclobutyl-6-(difluoromethoxy)-5-fluoro-1H-indol-2-yl]-N-[(2R)-1,1,1-trifluoropropan-2-yl]pyridine-3-sulfonamide] | 173 to 175 °C | < 500 nM
CC(C)(NS(=O)(=O)c1ccc(-c2c(C#N)c3ccc(CC(F)F)cc3n2C2CCCC2)nc1)C(F)(F)F [compound 596, 6-[3-cyano-1-cyclopentyl-6-(2,2-difluoroethyl)-1H-indol-2-yl]-N-(1,1,1-trifluoro-2-methylpropan-2-yl)pyridine-3-sulfonamide] | 194 to 199 °C | < 500 nM
Cc1ccc2c(C#N)c(-c3ccc(S(=O)(=O)N[C@H](C)C(F)(F)F)cn3)n(C3CCCCC3)c2c1 [compound 213, 6-(3-cyano-1-cyclohexyl-6-methyl-1H-indol-2-yl)-N-[(2R)-1,1,1-trifluoropropan-2-yl]pyridine-3-sulfonamide] | 208 to 212 °C | < 500 nM
Cc1cc2c(cc1F)c(C#N)c(-c1ccc(S(=O)(=O)N[C@@H](C)C(F)(F)F)cn1)n2-c1ccncc1 [compound 933, 6-[3-cyano-5-fluoro-6-methyl-1-(pyridin-4-yl)-1H-indol-2-yl]-N-[(2S)-1,1,1-trifluoropropan-2-yl]pyridine-3-sulfonamide] | 250 to 255 °C | < 500 nM
C[C@H](NS(=O)(=O)c1cnc(-c2c(C#N)c3cc(F)ccc3n2C2CCCCC2)nc1)C1CC1 [compound 528, 2-(3-cyano-1-cyclohexyl-5-fluoro-1H-indol-2-yl)-N-[(1S)-1-cyclopropylethyl]pyrimidine-5-sulfonamide] | 219 to 221 °C | < 500 nM
Cc1ccc2c(C#N)c(-c3ncc(S(=O)(=O)N[C@@H](C)C(F)(F)F)cn3)n(C(C)C)c2c1 [compound 403, 2-[3-cyano-6-methyl-1-(propan-2-yl)-1H-indol-2-yl]-N-[(2S)-1,1,1-trifluoropropan-2-yl]pyrimidine-5-sulfonamide] | 235 to 236 °C | 500 to 2000 nM
N#Cc1c(-c2ccc(S(=O)(=O)NC(CF)CF)cn2)n(-c2ccccn2)c2ccc(Cl)cc12 [compound 443, 6-[5-chloro-3-cyano-1-(pyridin-2-yl)-1H-indol-2-yl]-N-(1,3-difluoropropan-2-yl)pyridine-3-sulfonamide] | 187 to 188 °C | < 500 nM
CCc1cc2c(cc1F)c(C#N)c(-c1ccc(S(=O)(=O)N[C@@H](C)C(F)(F)F)cn1)n2-c1ccc(Cl)cn1 [compound 966, 6-[1-(5-chloropyridin-2-yl)-3-cyano-6-ethyl-5-fluoro-1H-indol-2-yl]-N-[(2S)-1,1,1-trifluoropropan-2-yl]pyridine-3-sulfonamide] | 252 to 259 °C | < 500 nM
